Read-outs that look alike come from different tables or passages of the source.
Experiments:
[1] = tested on: NO production in LPS-activated BV-2 cells; assay: NO production assay (Griess) in LPS-activated BV-2 cells; type: cell-based, murine; settings: Mus musculus, read-out: NO Inhibition IC50
Experimental: (§1) 3-(4,5-dimethylthiazol-2-yl)-2,5-diphenyl-tetrazolium bromide (MTT) assay was performed to evaluate the cytotoxicity of the samples to the microglia. BV2 cells at the density of 4 × 10^4 cells /well were seeded in the 96 well plate and incubated for 24 h. Seeded cells were pre-treated with different concentration of the samples, and LPS (100 ng/ml) activation was performed after 30 min of compound treatment. Treated plate were incubated for 24 h in the incubator and nitric oxide assay and cell viability assay was performed. Treated cell’s conditioned medium was used to evaluate the NO assay, and the attached cells were used to evaluate the cell viability assay. 50 µL of conditioned medium (CM) from treated cells were transferred to a new 96 well plate for NO assay. This CM was mixed with the equal volume of the mixture of Gries reagent ((1% sulfanilamide and 0.1% N-1-napthylethylenediamine dihydrochloride). NaNO2 was used as standard and the colorimetric change were evidenced by measuring its OD at 540 nm in a microplate reader. The cells in the plate were incubated for 1 h with MTT solution making it the final concentration of […]. Blue stained cells were incubated with 200 ul of DMSO and the solution get changed to purple/formazan color and it was observed by measuring the absorbance at 570 nm in a microplate reader.NG-mono-methyl-L-arginine (L-NMMA), a well-known nitric oxide synthase (NOS) inhibitor, was used as a positive control.

[2] = target: GSK3β (Homo sapiens, UniProt P49841); assay: GSK3β radiolabelled kinase assay (% residual activity, IC50, ATP competition); type: biochemical; settings: for remaining activity at 10 µM: at 10 μM compound
[3] = MTT cell viability assay; type: cell-based, murine; settings: mouse, BV-2 microglia cells (LPS-activated), mean ± SD; for viability at 24 h, 5 µM: 5 μM compound, % of LPS; for viability at 24 h, 1 µM: 1 μM compound
Experimental: as §1

[4] = target: T1, TRPM7/CHAK1 (Homo sapiens, UniProt Q96QT4); assay: Kinase panel assay (radiolabelled); type: biochemical; settings: control NH125
T1 construct: purchased Reaction Biology Corp
Experimental: (§2) Every inhibitory activity of tested compounds was measured by radiolabelled method of Reaction Biology Corp). The radiolabelled ATP ([γ-^33P] ATP) replaced a substrate with ^33P-phosphorylated substrate so that the activity of a kinase was measured from the radiolabelled phosphorylated substrate. Kinase panel assay was tested at 30 μM testing compounds with an ATP concentration of 10 μM and a substrate concentration of 10 μM. % Residual activity against GSK3β was measured at 10 uM compounds 1 and 2. […] Curve fits of control compounds were performed where the enzyme activities at the highest concentration of compounds were less than 65%. The concentration of DMSO was controlled and raw data, % kinase activity was calculated relative to DMSO controls.

[5] = target: T2, PDK2/PDHK2 (Homo sapiens, UniProt Q15119); assay: Kinase panel assay (radiolabelled); type: biochemical; settings: control GW5074
T2 construct: purchased Reaction Biology Corp
Experimental: as §2

[6] = target: T3, PDK3/PDHK3 (Homo sapiens, UniProt Q15120); assay: Kinase panel assay (radiolabelled); type: biochemical; settings: control GW5074
T3 construct: purchased Reaction Biology Corp
Experimental: as §2

[7] = target: T4, PDK4/PDHK4 (Homo sapiens, UniProt Q16654); assay: Kinase panel assay (radiolabelled); type: biochemical; settings: control GW5074
T4 construct: purchased Reaction Biology Corp
Experimental: as §2

[8] = target: T5, PDK1/PDHK1 (Homo sapiens, UniProt Q15118); assay: Kinase panel assay (radiolabelled); type: biochemical; settings: control GW5074
T5 construct: purchased Reaction Biology Corp
Experimental: as §2

[9] = target: T6, EIF2AK1 (Homo sapiens, UniProt Q9BQI3); assay: Kinase panel assay (radiolabelled); type: biochemical; settings: control GSK-2606414
T6 construct: purchased Reaction Biology Corp
Experimental: as §2

Chain of GSK3β (P49841 whole entry): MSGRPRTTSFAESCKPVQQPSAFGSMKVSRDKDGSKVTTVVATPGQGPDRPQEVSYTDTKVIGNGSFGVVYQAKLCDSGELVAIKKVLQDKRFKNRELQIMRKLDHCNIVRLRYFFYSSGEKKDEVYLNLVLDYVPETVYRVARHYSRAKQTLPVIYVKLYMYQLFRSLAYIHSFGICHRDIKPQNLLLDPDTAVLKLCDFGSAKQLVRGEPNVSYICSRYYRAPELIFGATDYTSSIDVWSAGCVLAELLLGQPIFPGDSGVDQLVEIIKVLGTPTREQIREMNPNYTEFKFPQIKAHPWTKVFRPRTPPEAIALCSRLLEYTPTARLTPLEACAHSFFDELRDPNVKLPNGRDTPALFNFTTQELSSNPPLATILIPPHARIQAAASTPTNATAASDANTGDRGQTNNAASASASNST
T5 sequence (Q15118 29-436): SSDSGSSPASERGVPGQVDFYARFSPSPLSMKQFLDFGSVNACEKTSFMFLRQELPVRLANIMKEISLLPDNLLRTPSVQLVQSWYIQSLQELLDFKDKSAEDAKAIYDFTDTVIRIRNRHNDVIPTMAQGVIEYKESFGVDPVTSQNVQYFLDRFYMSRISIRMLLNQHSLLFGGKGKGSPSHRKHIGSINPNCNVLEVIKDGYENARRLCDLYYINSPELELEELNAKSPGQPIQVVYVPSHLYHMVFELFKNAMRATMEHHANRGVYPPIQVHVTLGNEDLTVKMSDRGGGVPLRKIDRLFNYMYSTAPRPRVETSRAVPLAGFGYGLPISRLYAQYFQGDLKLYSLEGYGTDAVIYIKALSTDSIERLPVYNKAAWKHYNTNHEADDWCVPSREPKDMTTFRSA
T1 sequence (Q96QT4 whole entry): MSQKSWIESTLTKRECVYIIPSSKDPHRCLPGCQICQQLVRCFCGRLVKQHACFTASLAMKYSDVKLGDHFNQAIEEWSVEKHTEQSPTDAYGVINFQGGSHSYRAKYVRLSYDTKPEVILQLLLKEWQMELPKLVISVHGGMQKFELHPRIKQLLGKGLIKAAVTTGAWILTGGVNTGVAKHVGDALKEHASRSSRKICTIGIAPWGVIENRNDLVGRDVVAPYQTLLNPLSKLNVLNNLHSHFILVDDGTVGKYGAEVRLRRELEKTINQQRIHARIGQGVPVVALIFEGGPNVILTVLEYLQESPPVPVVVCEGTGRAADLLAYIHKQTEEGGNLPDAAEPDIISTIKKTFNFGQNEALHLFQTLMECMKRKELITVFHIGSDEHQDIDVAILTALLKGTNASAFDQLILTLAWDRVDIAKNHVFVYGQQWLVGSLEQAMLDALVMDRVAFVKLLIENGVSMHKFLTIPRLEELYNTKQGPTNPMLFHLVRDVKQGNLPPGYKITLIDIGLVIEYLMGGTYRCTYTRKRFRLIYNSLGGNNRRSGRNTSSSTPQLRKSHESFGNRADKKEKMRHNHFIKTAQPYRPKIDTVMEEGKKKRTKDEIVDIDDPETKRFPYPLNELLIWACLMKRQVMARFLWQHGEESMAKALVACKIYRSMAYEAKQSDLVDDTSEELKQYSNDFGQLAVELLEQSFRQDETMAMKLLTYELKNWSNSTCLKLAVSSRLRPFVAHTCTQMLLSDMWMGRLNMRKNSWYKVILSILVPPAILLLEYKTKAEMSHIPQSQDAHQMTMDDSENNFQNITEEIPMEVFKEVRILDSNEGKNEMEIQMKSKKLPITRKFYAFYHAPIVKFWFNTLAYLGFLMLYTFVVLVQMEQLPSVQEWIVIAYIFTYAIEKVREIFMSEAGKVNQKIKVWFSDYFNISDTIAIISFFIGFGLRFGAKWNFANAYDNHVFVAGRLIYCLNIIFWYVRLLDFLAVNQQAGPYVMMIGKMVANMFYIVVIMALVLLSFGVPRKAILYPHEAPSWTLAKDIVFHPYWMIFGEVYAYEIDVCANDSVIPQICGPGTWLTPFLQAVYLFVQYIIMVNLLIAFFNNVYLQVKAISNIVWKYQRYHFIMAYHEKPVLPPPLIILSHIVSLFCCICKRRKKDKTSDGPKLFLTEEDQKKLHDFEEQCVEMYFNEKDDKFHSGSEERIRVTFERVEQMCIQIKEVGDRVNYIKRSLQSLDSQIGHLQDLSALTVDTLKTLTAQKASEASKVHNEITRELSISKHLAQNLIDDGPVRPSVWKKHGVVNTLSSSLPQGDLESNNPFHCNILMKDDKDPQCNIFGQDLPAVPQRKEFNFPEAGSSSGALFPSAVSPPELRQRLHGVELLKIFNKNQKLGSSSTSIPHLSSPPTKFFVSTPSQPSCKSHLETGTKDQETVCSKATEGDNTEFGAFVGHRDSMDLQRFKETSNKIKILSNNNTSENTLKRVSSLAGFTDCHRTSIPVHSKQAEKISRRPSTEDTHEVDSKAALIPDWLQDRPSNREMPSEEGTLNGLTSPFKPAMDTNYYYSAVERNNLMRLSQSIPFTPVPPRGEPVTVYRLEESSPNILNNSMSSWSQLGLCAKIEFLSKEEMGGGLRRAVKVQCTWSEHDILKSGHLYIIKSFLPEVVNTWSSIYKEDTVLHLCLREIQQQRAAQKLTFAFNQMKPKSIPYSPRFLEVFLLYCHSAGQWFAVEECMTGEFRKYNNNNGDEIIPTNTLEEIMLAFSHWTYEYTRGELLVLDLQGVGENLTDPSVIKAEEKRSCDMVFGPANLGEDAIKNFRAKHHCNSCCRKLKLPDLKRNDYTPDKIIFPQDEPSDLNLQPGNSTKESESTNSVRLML
T6 sequence (Q9BQI3 whole entry): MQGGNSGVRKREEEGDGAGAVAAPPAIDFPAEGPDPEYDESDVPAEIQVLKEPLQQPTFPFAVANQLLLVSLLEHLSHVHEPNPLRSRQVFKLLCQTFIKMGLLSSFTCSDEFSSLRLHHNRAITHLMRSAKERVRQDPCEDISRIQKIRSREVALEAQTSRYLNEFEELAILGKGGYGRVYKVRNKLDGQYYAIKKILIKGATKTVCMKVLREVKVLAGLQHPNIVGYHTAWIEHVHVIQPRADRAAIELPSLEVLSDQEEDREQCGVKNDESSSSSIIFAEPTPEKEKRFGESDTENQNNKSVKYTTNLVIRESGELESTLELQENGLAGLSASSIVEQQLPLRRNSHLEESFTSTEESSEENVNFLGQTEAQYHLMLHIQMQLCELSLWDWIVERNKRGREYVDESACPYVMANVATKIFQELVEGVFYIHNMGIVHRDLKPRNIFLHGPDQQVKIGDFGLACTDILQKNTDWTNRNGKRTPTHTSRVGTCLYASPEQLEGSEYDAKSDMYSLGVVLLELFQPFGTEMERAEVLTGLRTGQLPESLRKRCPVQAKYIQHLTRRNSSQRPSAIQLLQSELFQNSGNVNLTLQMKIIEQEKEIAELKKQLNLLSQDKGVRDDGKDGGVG
T4 sequence (Q16654 whole entry): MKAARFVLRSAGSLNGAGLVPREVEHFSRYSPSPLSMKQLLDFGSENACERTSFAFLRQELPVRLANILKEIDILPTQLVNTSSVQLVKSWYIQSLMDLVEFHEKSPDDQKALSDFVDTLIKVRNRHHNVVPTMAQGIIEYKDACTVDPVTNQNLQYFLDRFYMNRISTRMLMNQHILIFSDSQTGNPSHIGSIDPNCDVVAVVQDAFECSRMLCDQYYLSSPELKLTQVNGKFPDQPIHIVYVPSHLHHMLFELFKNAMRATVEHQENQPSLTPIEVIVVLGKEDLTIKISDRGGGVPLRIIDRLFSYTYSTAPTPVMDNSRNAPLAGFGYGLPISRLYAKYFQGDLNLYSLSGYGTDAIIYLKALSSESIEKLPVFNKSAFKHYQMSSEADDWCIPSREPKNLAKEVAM
T3 sequence (Q15120 whole entry): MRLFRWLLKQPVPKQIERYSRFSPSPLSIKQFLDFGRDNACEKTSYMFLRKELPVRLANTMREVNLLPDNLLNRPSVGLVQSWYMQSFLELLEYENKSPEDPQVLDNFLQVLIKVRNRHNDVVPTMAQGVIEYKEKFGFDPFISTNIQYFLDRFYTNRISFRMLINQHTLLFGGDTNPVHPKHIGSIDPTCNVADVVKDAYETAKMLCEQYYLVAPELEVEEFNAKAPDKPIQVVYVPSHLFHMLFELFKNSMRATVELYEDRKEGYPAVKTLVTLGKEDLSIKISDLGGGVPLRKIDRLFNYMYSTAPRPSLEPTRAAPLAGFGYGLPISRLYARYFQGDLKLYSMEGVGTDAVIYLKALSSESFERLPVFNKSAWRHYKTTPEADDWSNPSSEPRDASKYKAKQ

Structure (SMILES) | IC50 [1] [nM] | remaining activity at 10 µM [2] [%] | viability at 24 h, 5 µM [3] [%] | also measured
COc1cc(OC)cc(-n2cc(CC3COC4(C=CC(=O)C=C4)N(c4ccccc4)C3=O)nn2)c1 (centres unmarked) [2m, 3-((1-(3,5-B=Dimethoxyphenyl)-1H-1,2,3-triazol-4-yl)methyl)-5-phenyl-1-oxa-5-azaspiro[5.5]undeca-7,10-diene-4,9-dione] | 1220 ± 300 | 114 ± 4.5 | 108 ± 5 | –
O=C1C=CC2(C=C1)OCC(Cc1cn(C34CC5CC(CC(C5)C3)C4)nn1)C(=O)N2c1ccccc1 [2q, 3-((1-((3R,5S)-adamantan-1-yl)-1H-1,2,3-triazol-4-yl)methyl)-5-phenyl-1-oxa-5-azaspiro[5.5]undeca-7,10-diene-4,9-dione] | 780 ± 100 | 71.6 ± 1.4 | 87 ± 7 | –
C#CCC1COC2(C=CC(=O)C=C2)N(c2ccccc2)C1=O (centres unmarked) [compound 7, 5-Phenyl-3-(prop-2-yn-1-yl)-1-oxa-5-azaspiro[5.5]undeca-7,10-diene-4,9-dione] | 680 ± 70 | 55.7 ± 8.4 | 100 ± 24 | –
O=C1C=CC2(C=C1)OCC(Cc1cn(-c3cccc(Cc4ccccc4)c3)nn1)C(=O)N2c1ccccc1 (centres unmarked) [2j, 3-((1-(3-Benzylphenyl)-1H-1,2,3-triazol-4-yl)methyl)-5-phenyl-1-oxa-5-azaspiro[5.5]undeca-7,10-diene-4,9-dione] | 630 ± 10 | 10.5 ± 2 | 74 ± 4 | IC50 ([2]; ATP 1 µM, 10-dose, threefold dilution from 10 μM, read-out: IC50 of GSK3β activity): 2650 nM; IC50 ([2]; ATP 10 µM, 10-dose, threefold dilution from 10 μM, read-out: IC50 of GSK3β activity): 3530 nM; IC50 ([2]; ATP 50 µM, 10-dose, threefold dilution from 10 μM, read-out: IC50 of GSK3β activity): 3790 nM; IC50 ([2]; ATP 100 µM, 10-dose, threefold dilution from 10 μM, read-out: IC50 of GSK3β activity): 4040 nM; IC50 ([2]; ATP 200 µM, 10-dose, threefold dilution from 10 μM, read-out: IC50 of GSK3β activity): 3450 nM; dependence of GSK3β IC50 on ATP concentration ([2]; ATP 1, 10, 50, 100 and 200 µM): retained its IC50 activity regardless of the ATP concentration; viability at 24 h, 1 µM [3]: 107 ± 6.88%
O=C1C=CC2(C=C1)OCC(Cc1ccccc1)C(=O)N2c1ccccc1 (centres unmarked) [1a] | 540 | 85.8 ± 16.1 | 74 ± 7 | viability at 24 h, 1 µM [3]: 95 ± 6.87%
Cc1cc(=O)oc2cc(-n3cc(CC4COC5(C=CC(=O)C=C5)N(c5ccccc5)C4=O)nn3)ccc12 (centres unmarked) [2p, 3-((1-(4-methyl-2-oxo-2H-chromen-7-yl)-1H-1,2,3-triazol-4-yl)methyl)-5-phenyl-1-oxa-5-azaspiro[5.5]undeca-7,10-diene-4,9-dione] | 850 ± 190 | 35.7 ± 3.7 | 97 ± 2 | IC50 ([2]; ATP 1 μM (Table 2), read-out: IC50 on GSK3β (converted)): 11400 nM
CCCCCCCCCCCCCCCCn1cc[n+](Cc2ccccc2)c1C [NH125, reference compound] | – | – | – | IC50 [4]: 5860 nM
O=C1C=CC2(C=C1)OCC(Cc1cn(-c3ccc(C(F)(F)F)cc3)nn1)C(=O)N2c1ccccc1 (centres unmarked) [2f, 5-Phenyl-3-((1-(4-(trifluoromethyl)phenyl)-1H-1,2,3-triazol-4-yl)methyl)-1-oxa-5-azaspiro[5.5]undeca-7,10-diene-4,9-dione] | 770 ± 20 | 96.3 ± 16.5 | 115 ± 3 | –
CC(=O)Nc1ccc(-n2cc(CC3COC4(C=CC(=O)C=C4)N(c4ccccc4)C3=O)nn2)cc1 (centres unmarked) [2l, N-(4-(4-((4,9-Dioxo-5-phenyl-1-oxa-5-azaspiro[5.5]undeca-7,10-dien-3-yl)methyl)-1H-1,2,3-triazol-1-yl)phenyl)acetamide] | 930 ± 60 | 122 ± 2.3 | 109 ± 16 | –
O=C1C=CC2(C=C1)OCC(Cc1cn(-c3ccc(Br)cc3)nn1)C(=O)N2c1ccccc1 (centres unmarked) [2e, 3-((1-(4-Bromophenyl)-1H-1,2,3-triazol-4-yl)methyl)-5-phenyl-1-oxa-5-azaspiro[5.5]undeca-7,10-diene-4,9-dione] | 670 ± 10 | 69.6 ± 5.1 | 93 ± 6 | viability at 24 h, 1 µM [3]: 106 ± 1.28%
O=C1C=CC2(C=C1)OCC(Cc1cn(-c3ccc(F)cc3)nn1)C(=O)N2c1ccccc1 (centres unmarked) [2c, 3-((1-(4-Fluorophenyl)-1H-1,2,3-triazol-4-yl)methyl)-5-phenyl-1-oxa-5-azaspiro[5.5]undeca-7,10-diene-4,9-dione] | 780 ± 40 | 84.8 ± 5.3 | 109 ± 13 | –
COc1cc(-n2cc(CC3COC4(C=CC(=O)C=C4)N(c4ccccc4)C3=O)nn2)ccc1F (centres unmarked) [2n, 3-((1-(4-fluoro-3-methoxyphenyl)-1H-1,2,3-triazol-4-yl)methyl)-5-phenyl-1-oxa-5-azaspiro[5.5]undeca-7,10-diene-4,9-dione] | 850 ± 40 | 85.6 ± 2 | 102 ± 8 | –
O=C1C=CC2(C=C1)OCC(Cc1cn(-c3cccnc3)nn1)C(=O)N2c1ccccc1 (centres unmarked) [2b, 5-Phenyl-3-((1-(pyridin-3-yl)-1H-1,2,3-triazol-4-yl)methyl)-1-oxa-5-azaspiro[5.5]undeca-7,10-diene-4,9-dione] | 870 ± 110 | 87.5 ± 0.6 | 120 ± 11 | –
O=C1Nc2ccc(I)cc2/C1=C/c1cc(Br)c(O)c(Br)c1 [GW5074, reference compound] | – | – | – | IC50 [5]: 3280 nM; IC50 [6]: 1820 nM; IC50 [7]: 2120 nM; IC50 [8]: 12100 nM
CSc1ccc(-n2cc(CC3COC4(C=CC(=O)C=C4)N(c4ccccc4)C3=O)nn2)cc1 (centres unmarked) [2i, 3-((1-(4-(Methylthio)phenyl)-1H-1,2,3-triazol-4-yl)methyl)-5-phenyl-1-oxa-5-azaspiro[5.5]undeca-7,10-diene-4,9-dione] | 980 ± 40 | 66.9 ± 11.4 | 121 ± 2 | –
Cn1cc(-c2ccc3c(c2)CCN3C(=O)Cc2cccc(C(F)(F)F)c2)c2c(N)ncnc21 [GSK-2606414, reference compound] | – | – | – | IC50 [9]: 106 nM
[H]/N=C(/NC)NCCC[C@H](N)C(=O)O [L-NMMA, NG-mono-methyl-L-arginine, reference compound] | 19600 ± 420 | – | 105 ± 4 | viability at 24 h, 1 µM [3]: 101 ± 1.6%
N#Cc1cccc(-n2cc(CC3COC4(C=CC(=O)C=C4)N(c4ccccc4)C3=O)nn2)c1 (centres unmarked) [2g, 3-(4-((4,9-Dioxo-5-phenyl-1-oxa-5-azaspiro[5.5]undeca-7,10-dien-3-yl)methyl)-1H-1,2,3-triazol-1-yl)benzonitrile] | 800 ± 130 | 41.8 ± 0.9 | 128 ± 17 | –
O=C1C=CC2(C=C1)OCC(Cc1cn(-c3ccc4c(c3)OCO4)nn1)C(=O)N2c1ccccc1 (centres unmarked) [2o, 3-((1-(benzo[d][1,3]dioxol-5-yl)-1H-1,2,3-triazol-4-yl)methyl)-5-phenyl-1-oxa-5-azaspiro[5.5]undeca-7,10-diene-4,9-dione] | 740 ± 80 | 75 ± 0.7 | 89 ± 8 | –
O=C1C=CC2(C=C1)OCC(Cc1cn(Cc3ccccc3)nn1)C(=O)N2c1ccccc1 (centres unmarked) [2r, 3-((1-Benzyl-1H-1,2,3-triazol-4-yl)methyl)-5-phenyl-1-oxa-5-azaspiro[5.5]undeca-7,10-diene-4,9-dione] | 650 ± 60 | 61.7 ± 13.8 | 75 ± 11 | viability at 24 h, 1 µM [3]: 101.3 ± 0.67%
COc1ccc(-n2cc(CC3COC4(C=CC(=O)C=C4)N(c4ccccc4)C3=O)nn2)cc1 (centres unmarked) [2h, 3-((1-(4-Methoxyphenyl)-1H-1,2,3-triazol-4-yl)methyl)-5-phenyl-1-oxa-5-azaspiro[5.5]undeca-7,10-diene-4,9-dione] | 760 ± 10 | 112 ± 4.5 | 124 ± 7 | –
O=C1C=CC2(C=C1)OCC(Cc1cn(-c3ccc(S(=O)(=O)C(F)(F)F)cc3)nn1)C(=O)N2c1ccccc1 (centres unmarked) [2k, 5-Phenyl-3-((1-(4-((trifluoromethyl)sulfonyl)phenyl)-1H-1,2,3-triazol-4-yl)methyl)-1-oxa-5-azaspiro[5.5]undeca-7,10-diene-4,9-dione] | 770 ± 60 | 35.1 ± 4.2 | 71 ± 3 | –

From paper PMC7719162, “Positioning of an unprecedented spiro[5.5]undeca ring system into kinase inhibitor space” (Scientific Reports, 2020)
